According to patent publication US7972815B2, “Method of producing sugar chain using human G4 polypeptide” (Kyowa Hakko Kirin Co., Ltd., priority 1999, dated 2011):

Assays:
Type in all cases: biochemical
[1] = biological target: T1, β1,3-N-acetylglucosaminyl transferase (G4) (Homo sapiens, UniProt Q9Y2A9, R328H); experiment: Substrate specificity of G4 with pyridylaminated oligosaccharides; settings: for Relative activity (%): pyridylaminated substrate 50 μmol/l, 37° C., 14.5 hours, activity on LNnT defined as 100%
T1 construct: made in house; host or cells: Sf21 insect cells infected with recombinant baculovirus from pVL1393-F2G4
T1 sequence (Q9Y2A9 38-372 R328H): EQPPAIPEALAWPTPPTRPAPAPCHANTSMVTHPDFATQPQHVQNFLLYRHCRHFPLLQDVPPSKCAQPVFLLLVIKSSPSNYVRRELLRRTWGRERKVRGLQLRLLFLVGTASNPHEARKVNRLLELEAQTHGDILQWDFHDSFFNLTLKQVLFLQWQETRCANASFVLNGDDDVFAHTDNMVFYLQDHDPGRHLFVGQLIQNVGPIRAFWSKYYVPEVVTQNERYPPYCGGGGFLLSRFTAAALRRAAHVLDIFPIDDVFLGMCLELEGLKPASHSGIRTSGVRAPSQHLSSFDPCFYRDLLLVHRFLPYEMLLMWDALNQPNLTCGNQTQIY
Experimental: Examination on the substrate specificity of a β1,3-N-acetylglucosaminyl transferase (G4) was carried out by using the FLAG peptide-fused G4 polypeptide produced as a secreted form in Example 10.
The method shown in Example 8 was used as the activity measuring method. Specifically, after the reaction at 37° C. for 14.5 hours in 30 μl of an assay solution [200 mmol/l of MOPS (pH 7.5), 20 mmol/l of UDP-GlcNAc (SIGMA), 20 mmol/l of MnCl2, 50 μmol/l of pyridylaminated sugar chain substrate and 15 μl of the above eluate], products were detected by HPLC. As substrates, LNnT, lacto-N-tetraose (Galβ1-3GlcNAcβ1-3Galβ1-4Glc, hereinafter referred to as “LNT”), lacto-N-fucopentaose II (Galβ1-3(Fucα1-4)GlcNAcβ1-3Galβ1-4Glc, hereinafter referred to as “LNFP-II”), lacto-N-fucopentaose III (Galβ1-4(Fucα1-3)GlcNAcβ1-3Galβ1-4Glc, hereinafter referred to as “LNFP-III”), lacto-N-fucopentaose V (Galβ1-3GlcNAcβ1-3Galβ1-4(Fucα1-3)Glc, hereinafter referred to as “LNFP-V”) and lacto-N-difucohexaose II (Galβ1-3(Fucα1-4)GlcNAcβ1-3Galβ1-4(Fucα1-3)Glc, hereinafter referred to as “LNDFH-II”) (all manufactured by Oxford Glycosystems) were used after fluorescently labeling them with aminopyridine. Fluorescence labeling of these substrates were carried out in accordance with the usual method [Agric. Biol. Chem., 54, 2169 (1990)].
(§1) For each substrate, the reaction was carried using the assay solution with or without UDP-GlcNAc (sugar donor), and then HPLC was carried out and peaks appeared only in the assay solution containing UDP-GlcNAc were defined as products.
The assay solution after completion of the reaction was treated at 100° C. for 5 minutes and then centrifuged at 10,000×g for 5 minutes, and a portion (5 μl) of the thus obtained supernatant was applied to HPLC.
The HPLC was carried out by using TSK-gel ODS-80Ts column (4.6×300 mm; Tosoh); 0.02 mol/l ammonium acetate buffer (pH 4.0) was used as the eluate at an elution temperature of 50° C. and at a flow rate of 0.5 ml/min.
Products were detected by using a fluorescence spectrum photometer FP-920 (JASCO Corporation) (excitation wavelength 320 nm, radiation wavelength 400 nm).

[2] = biological target: T1, β1,3-N-acetylglucosaminyl transferase (G4); experiment: Substrate specificity of G4 with unlabeled oligosaccharides (HPAE/PAD); settings: for Relative activity (%): unlabeled substrate, 37° C., 16 hours, activity on LNnT defined as 100%
Experimental: (§2) The reaction using the glycosyltransferase was carried out as follows. The reaction was carried out at 37° C. for 16 hours in 40 μl of an assay solution [50 mmol/l MOPS (pH 7.5), 5 mmol/l UDP-GlcNAc (SIGMA), 5 mmol/l MnCl2, […] and 10 μl of the above eluate]. Next, the reaction solution was treated at 100° C. for 5 minutes and then centrifuged at 10,000×g for 20 minutes to obtain the supernatant, and a portion thereof was analyzed using HPAE/PAD (High Performance Anion Pulsed Amperometoric Detection; manufactured by DIONEX). The specific method was carried out in the usual way [Anal. Biochem., 189, 151 (1990), J. Biol. Chem., 273, 433 (1998)].
(§3) As substrates, the following unlabeled oligosaccharides were used: lactose (Galβ1-4Glc), N-acetyllactosamine (Galβ1-4GlcNAc, hereinafter referred to as “LacNAc” in some cases), LNnT, LNT and lacto-N-neohexaose (Galβ1-4GlcNACβ1-3Galβ1-4GlcNAcβ1-3Galβ1-4Glc, hereinafter referred to as “LNnH”).
as §1
(§4) In identifying the product, coincidence of its elution time with that of a standard sugar chain was used as the index. As the standard sugar chains, GlcNAcβ1-3Galβ1-4Glc, GlcNAcβ1-3Galβ1-4GlcNAc and GlcNAcβ1-3Galβ1-4GlcNAcβ1-3Galβ1-4Glc were used.

[3] = biological target: T2, β1,3-N-acetylglucosaminyl transferase (G3) (Homo sapiens, UniProt Q9NY97); experiment: Substrate specificity of G3 with unlabeled oligosaccharides; settings: 2 hours; for Relative activity (%) G3: unlabeled substrate, 37° C., activity for LNnT defined as 100%
T2 construct: made in house; host or cells: Sf21 insect cells infected with recombinant baculovirus from pVL1393-F2G3
T2 sequence (Q9NY97 31-397): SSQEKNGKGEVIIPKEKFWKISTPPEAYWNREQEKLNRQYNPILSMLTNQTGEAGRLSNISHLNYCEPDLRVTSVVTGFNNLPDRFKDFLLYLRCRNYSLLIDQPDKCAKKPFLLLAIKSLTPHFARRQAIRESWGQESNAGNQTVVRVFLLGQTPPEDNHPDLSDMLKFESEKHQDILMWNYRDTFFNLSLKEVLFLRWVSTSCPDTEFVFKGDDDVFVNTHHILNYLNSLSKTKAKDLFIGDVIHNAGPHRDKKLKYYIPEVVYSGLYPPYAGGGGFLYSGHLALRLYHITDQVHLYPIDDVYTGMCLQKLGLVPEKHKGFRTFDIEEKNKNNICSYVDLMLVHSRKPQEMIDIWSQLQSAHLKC
Experimental: as §2, §3, §1, §4
Substrate specificity of the FLAG peptide-fused G3 polypeptide was examined by the method shown in Example 11(2). The enzyme reaction was carried out at 37° C. for 2 hours.

[4] = biological target: T3, β1,3-N-acetylglucosaminyl transferase (G7) (Homo sapiens, UniProt Q9C0J1); experiment: Substrate specificity of G7 with unlabeled oligosaccharides; settings: 15.5 hours; for Relative activity (%) G7: unlabeled substrate, 37° C., activity for LNnT defined as 100%
T3 construct: made in house; host or cells: Sf21 insect cells infected with recombinant baculovirus from pVL1393-F2G7
T3 sequence (Q9C0J1 56-378): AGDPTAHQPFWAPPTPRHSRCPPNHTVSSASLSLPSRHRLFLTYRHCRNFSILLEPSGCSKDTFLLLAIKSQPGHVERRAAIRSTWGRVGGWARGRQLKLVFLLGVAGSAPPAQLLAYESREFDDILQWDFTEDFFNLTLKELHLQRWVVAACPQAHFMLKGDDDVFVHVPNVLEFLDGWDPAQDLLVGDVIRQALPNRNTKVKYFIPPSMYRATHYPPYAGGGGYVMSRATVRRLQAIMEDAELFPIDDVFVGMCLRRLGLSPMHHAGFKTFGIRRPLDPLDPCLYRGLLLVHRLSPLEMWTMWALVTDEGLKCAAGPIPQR
Experimental: as §2, §3, §1, §4
Substrate specificity of the FLAG peptide-fused G7 polypeptide was examined using the method shown in Example 11(2). The enzyme reaction was carried out at 37° C. for 15.5 hours.

Row | conversion ratio of the substrate into the product ([1]; pyridylaminated LNnT as substrate) | Relative activity (%) [1] | conversion ratio of the substrate into the product ([2]; unlabeled LNnT as substrate) | Relative activity (%) [2] | conversion ratio of a substrate into the product ([3]; unlabeled LNnT as substrate) | Relative activity (%) G3 [3] | conversion efficiency of the substrate into the product ([4]; unlabeled LNnT as substrate) | Relative activity (%) G7 [4] | SMILES
1 | 12.9% | 100% | 1.7% | 100% | 4.6% | 100% | 3.07% | 100% | CC(=O)N[C@H]1[C@H](O[C@H]2[C@@H](O)[C@@H](CO)O[C@@H](O[C@H]3[C@H](O)[C@@H](O)C(O)O[C@@H]3CO)[C@@H]2O)O[C@H](CO)[C@@H](O[C@@H]2O[C@H](CO)[C@H](O)[C@H](O)[C@H]2O)[C@@H]1O (mixture of isomers) [LNnT, lacto-N-neotetraose]
2 |  | 84.5% |  | 114% |  | 27% |  | 0% | CC(=O)N[C@H]1[C@H](O[C@H]2[C@@H](O)[C@@H](CO)O[C@@H](O[C@H]3[C@H](O)[C@@H](O)C(O)O[C@@H]3CO)[C@@H]2O)O[C@H](CO)[C@@H](O)[C@@H]1O[C@@H]1O[C@H](CO)[C@H](O)[C@H](O)[C@H]1O (stereo partly drawn) [LNT, lacto-N-tetraose]
